Reference: US10526316B2, “Quinoxaline and pyridopyrazine derivatives as PI3Kβ inhibitors” (Janssen Pharmaceutica NV, priority 2015, dated 2020)
pIC50, pKd: −log10 of the molar value. Where two headings read alike, the source gives them in different places.

What was measured:
[1] = target: T1, PI3Kβ (Homo sapiens, UniProt P42338); assay: Enzyme binding assay (KINOMEscan, DiscoveRx); settings: PIK3Cβ_h, read-out: Kd PIK3Cβ_h
T1 construct: purchased DiscoveRx Corporation, San Diego (contract service, KINOMEscan)
T1 sequence (P42338 whole entry): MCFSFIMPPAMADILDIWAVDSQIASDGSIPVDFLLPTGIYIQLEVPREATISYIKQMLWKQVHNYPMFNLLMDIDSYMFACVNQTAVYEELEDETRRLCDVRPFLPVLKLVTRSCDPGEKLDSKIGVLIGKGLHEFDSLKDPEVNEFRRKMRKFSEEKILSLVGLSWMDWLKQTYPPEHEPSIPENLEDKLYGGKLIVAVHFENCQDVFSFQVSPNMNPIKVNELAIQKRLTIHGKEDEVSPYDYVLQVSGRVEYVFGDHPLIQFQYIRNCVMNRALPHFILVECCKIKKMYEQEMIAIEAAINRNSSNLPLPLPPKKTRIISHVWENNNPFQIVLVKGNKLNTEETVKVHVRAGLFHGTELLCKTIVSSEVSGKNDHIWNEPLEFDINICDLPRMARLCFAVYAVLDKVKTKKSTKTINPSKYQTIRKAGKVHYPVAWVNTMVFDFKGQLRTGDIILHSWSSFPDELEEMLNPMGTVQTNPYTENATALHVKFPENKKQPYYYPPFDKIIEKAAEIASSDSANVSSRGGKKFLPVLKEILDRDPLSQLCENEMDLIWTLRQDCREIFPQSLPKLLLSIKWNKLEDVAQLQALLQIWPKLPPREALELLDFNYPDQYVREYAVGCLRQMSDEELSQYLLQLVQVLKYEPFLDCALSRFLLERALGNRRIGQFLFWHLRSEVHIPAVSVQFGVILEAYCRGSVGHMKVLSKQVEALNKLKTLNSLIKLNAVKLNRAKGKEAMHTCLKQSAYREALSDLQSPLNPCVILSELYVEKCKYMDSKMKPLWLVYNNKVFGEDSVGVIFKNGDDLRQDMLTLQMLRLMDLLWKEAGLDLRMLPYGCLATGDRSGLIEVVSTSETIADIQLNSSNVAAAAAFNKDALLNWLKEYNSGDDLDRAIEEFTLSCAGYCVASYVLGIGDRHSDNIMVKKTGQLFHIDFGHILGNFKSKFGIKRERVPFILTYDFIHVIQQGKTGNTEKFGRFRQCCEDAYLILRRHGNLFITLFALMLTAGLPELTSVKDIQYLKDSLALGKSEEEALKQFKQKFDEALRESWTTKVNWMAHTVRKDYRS
How it was run: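 Reported Kd (nM) reflects inhibitor binding to the kinase, as measured by KINOMEscan technology.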

[2] = target: T2, PI3Kδ (Homo sapiens, UniProt O00329); assay: Enzyme binding assay (KINOMEscan, DiscoveRx); settings: PIK3Cδ_h
T2 construct: purchased DiscoveRx Corporation, San Diego (contract service, KINOMEscan)
T2 sequence (O00329 1-1044): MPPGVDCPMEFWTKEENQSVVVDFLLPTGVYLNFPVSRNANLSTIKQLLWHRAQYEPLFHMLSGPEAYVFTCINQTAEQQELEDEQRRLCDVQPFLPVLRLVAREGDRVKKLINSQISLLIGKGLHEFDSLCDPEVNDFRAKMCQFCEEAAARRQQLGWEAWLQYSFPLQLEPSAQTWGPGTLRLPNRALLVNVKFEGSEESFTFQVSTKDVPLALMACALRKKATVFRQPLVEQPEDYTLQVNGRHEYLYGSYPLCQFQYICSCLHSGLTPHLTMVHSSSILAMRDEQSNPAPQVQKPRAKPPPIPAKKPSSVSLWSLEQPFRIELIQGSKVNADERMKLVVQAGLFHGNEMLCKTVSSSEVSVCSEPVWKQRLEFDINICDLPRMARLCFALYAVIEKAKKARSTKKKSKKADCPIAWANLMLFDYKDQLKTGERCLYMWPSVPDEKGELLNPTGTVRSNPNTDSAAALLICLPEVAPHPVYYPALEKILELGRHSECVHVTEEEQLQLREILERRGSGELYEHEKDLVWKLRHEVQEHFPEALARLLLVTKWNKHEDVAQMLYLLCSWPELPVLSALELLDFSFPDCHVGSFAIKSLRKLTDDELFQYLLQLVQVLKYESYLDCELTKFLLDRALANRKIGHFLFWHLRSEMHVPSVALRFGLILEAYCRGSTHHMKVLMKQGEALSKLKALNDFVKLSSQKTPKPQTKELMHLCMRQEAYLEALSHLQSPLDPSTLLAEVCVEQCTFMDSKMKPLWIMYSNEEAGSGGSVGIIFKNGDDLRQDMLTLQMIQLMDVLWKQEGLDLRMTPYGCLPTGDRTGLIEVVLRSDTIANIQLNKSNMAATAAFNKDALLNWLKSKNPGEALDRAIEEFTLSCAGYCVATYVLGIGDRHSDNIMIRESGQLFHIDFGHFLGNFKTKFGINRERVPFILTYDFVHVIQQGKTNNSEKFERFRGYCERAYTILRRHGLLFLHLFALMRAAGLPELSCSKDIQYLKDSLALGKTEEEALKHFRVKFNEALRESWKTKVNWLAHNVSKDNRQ
How it was run: (§1)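 Kinase binding measured via KINOMEscan, reported as affinity.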

[3] = target: T3, kinase enzymes (Homo sapiens, UniProt P42336); assay: Enzyme binding assay (KINOMEscan, DiscoveRx), further kinases of Table A; settings: PIK3Cα_h
T3 construct: purchased DiscoveRx Corporation, San Diego (contract service, KINOMEscan)
T3 sequence (P42336 whole entry): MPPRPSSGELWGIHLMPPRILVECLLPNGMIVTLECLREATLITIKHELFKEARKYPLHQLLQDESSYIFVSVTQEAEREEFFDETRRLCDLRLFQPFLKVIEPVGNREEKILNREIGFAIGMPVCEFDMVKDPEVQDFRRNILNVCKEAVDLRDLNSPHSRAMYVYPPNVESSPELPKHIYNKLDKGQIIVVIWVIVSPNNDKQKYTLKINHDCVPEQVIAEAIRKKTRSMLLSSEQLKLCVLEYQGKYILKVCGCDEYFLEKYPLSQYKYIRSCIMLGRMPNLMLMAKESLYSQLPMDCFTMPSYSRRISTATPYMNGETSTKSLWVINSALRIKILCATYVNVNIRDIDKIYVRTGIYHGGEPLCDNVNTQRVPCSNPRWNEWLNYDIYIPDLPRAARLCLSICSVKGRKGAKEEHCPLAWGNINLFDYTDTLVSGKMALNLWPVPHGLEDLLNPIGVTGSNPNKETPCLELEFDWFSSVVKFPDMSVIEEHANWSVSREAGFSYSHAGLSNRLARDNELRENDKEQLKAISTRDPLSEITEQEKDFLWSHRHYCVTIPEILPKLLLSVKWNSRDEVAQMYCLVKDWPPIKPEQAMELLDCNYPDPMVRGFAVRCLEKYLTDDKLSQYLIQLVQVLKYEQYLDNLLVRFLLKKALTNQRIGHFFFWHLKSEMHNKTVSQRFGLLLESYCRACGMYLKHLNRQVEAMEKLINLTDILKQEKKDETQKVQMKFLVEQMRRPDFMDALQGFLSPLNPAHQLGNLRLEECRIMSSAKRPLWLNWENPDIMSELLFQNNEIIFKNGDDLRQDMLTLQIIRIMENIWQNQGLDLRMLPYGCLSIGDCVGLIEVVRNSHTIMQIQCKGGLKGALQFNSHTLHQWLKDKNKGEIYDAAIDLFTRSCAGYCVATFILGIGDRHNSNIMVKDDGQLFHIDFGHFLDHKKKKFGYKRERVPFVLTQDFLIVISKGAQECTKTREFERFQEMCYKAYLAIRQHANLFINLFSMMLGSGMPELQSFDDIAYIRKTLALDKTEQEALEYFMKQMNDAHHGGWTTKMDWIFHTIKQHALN
How it was run: as §1

[4] = target: T4, kinase enzymes (Homo sapiens, UniProt P42345); assay: as above; settings: MTOR_h
T4 construct: purchased DiscoveRx Corporation, San Diego (contract service, KINOMEscan)
How it was run: as §1

[5] = target: T5, kinase enzymes (Homo sapiens, UniProt P48736); assay: as above; settings: PIK3Cγ_h
T5 construct: purchased DiscoveRx Corporation, San Diego (contract service, KINOMEscan)
T5 sequence (P48736 whole entry): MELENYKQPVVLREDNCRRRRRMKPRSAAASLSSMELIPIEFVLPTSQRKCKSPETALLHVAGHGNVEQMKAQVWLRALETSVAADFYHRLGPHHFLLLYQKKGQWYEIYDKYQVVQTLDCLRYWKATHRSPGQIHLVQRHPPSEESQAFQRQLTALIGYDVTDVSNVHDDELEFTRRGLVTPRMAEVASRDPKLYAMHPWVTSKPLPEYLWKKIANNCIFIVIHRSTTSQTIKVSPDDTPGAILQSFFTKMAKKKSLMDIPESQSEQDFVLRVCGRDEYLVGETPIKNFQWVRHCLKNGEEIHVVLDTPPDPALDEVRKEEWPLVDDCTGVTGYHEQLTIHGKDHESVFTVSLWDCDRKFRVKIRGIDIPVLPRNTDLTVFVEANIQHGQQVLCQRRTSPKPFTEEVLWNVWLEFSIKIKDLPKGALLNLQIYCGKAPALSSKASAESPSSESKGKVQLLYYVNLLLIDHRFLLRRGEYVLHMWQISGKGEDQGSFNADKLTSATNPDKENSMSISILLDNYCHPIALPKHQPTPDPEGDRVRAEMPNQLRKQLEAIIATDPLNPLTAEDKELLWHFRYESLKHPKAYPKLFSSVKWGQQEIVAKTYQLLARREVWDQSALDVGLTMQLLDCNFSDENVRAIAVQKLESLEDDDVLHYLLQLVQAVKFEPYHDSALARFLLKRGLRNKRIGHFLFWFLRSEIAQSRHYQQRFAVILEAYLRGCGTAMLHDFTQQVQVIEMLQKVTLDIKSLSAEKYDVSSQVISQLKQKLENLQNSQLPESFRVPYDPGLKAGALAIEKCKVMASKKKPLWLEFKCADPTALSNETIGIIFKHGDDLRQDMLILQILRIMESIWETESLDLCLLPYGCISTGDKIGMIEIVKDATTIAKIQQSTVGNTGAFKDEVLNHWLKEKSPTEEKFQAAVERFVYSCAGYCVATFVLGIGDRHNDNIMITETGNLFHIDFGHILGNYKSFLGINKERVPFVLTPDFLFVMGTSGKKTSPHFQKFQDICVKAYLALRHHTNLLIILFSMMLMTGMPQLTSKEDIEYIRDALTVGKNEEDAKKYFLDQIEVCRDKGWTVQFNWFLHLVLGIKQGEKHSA
How it was run: as §1

[6] = tested on: Akt phosphorylated at Ser473 in PC-3 cells; assay: Cellular assay: phosphorylation of Akt at Ser473 in PC-3 cells (MSD ELISA); assay type: cell-based; settings: PC-3 cells, 60 min compound incubation, MSD ELISA, read-out: IC50 pAkt_S473
How it was run: (§2)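 Electrochemiluminescent sandwich ELISA read-out: phospho-specific capture (Ser473 or Thr308), Sulfo-tag anti-total Akt detection, signal proportional to phospho-Akt. Cells treated 60 min at 37° C with compound, DMSO 0.3%. IC50 fitted from five concentrations.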

[7] = tested on: Akt phosphorylated at Thr308 in PC-3 cells; assay: Cellular assay: phosphorylation of Akt at Thr308 in PC-3 cells (MSD ELISA); assay type: cell-based; settings: PC-3 cells, 60 min compound incubation, MSD ELISA, read-out: IC50 pAkt_Thr308
How it was run: as §2

Row | Compound | pKd [1] | pKd [2] | pKd [3] | pKd [4] | pKd [5] | pIC50 [6] | pIC50 [7] | melting point [°C] | pIC50 ([6]; Homo sapiens, PC-3, 1 h) | pIC50 ([7]; Homo sapiens, PC-3, 1 h)
1 | CC(Nc1cc(F)cc(F)c1)c1cc(C(=O)N2CCNC(C(F)(F)F)C2)cc2ncc(N3CCOCC3)nc12 (single isomer, unassigned) [Compound 237a] | 9.00 | 6.69 | 6.98 | < 4.52 | 5.30 | 8.22 | 8.40 | 120 |  | 
2 | CC(Nc1cc(F)cc(F)c1)c1cc(C(=O)NS(N)(=O)=O)cc2ncc(N3CCOCC3)nc12 (single isomer, unassigned) [Compound 243a] | 9.30 | 7.16 | 7.41 | 5.83 | 7.00 |  |  | 160 | < 6.29 | < 6.29
3 | CC(Nc1cc(F)cc(F)c1)c1cc(C(=O)NS(N)(=O)=O)cc2ncc(N3CCOCC3)nc12 (single isomer, unassigned) [Compound 243b] | 7.85 | 5.47 | 5.78 | 5.87 | 5.71 | < 6.29 | < 6.29 | 200 |  | 
4 | COC(=O)c1cc(C2CCCN2c2cc(F)cc(F)c2)c2nc(N3CCOCC3)cnc2c1 (single isomer, unassigned) [Compound 249] | 8.40 | 6.02 | 6.10 | < 4.52 | 5.62 | 7.15 | 7.28 | 211 |  | 
5 | O=C(O)c1cc(C2CCCN2c2cc(F)cc(F)c2)c2nc(N3CCOCC3)cnc2c1 (single isomer, unassigned) [Compound 251] | 9.52 | 7.64 | 8.10 | 6.17 | 7.19 |  |  | 299 | 7.28 | 7.64
6 | CC(Nc1ccc(F)c(F)c1)c1cc(C(=O)NCCO)cc2ncc(N3CCOCC3)nc12 (single isomer, unassigned) [Compound 279a] | 8.15 | 6.29 | 5.66 | 4.67 | 5.25 |  | 7.39 | 80 | 7.24 | 
7 | CC(Nc1ccc(F)c(F)c1)c1cc(C(=O)NCCCO)cc2ncc(N3CCOCC3)nc12 (single isomer, unassigned) [Compound 280a] | 7.92 | 6.25 | 5.77 | 4.68 | 4.92 | 7.06 | 7.35 | 80 |  | 
8 | CC(Nc1ccc(F)c(F)c1)c1cc(C(=O)NCCN(C)C)cc2ncc(N3CCOCC3)nc12 (single isomer, unassigned) [Compound 281a] | 9.52 | 7.14 | 5.82 | 4.63 | 5.39 | 8.30 | 8.52 | 102 |  | 
9 | CC(C)NCCNC(=O)c1cc(C(C)Nc2cc(F)c(F)c(F)c2)c2nc(N3CCOCC3)cnc2c1 (single isomer, unassigned) [Compound 283a] | 8.15 | 5.81 | 4.92 | < 4.52 | 4.72 |  |  | 173 | 7.09 | 7.28
10 | CC(Nc1cc(F)c(F)c(F)c1)c1cc(C(=O)NC[C@@H](C)O)cc2ncc(N3CCOCC3)nc12 (single isomer, unassigned) [Compound 284a] | 8.00 | 6.03 | 5.68 | 4.72 | 5.09 | 7.05 | 7.21 | 113 |  | 
11 | CC(Nc1cc(F)c(F)c(F)c1)c1cc(C(=O)NC[C@@H](C)O)cc2ncc(N3CCOCC3)nc12 (single isomer, unassigned) [Compound 284b] | 5.67 | < 4.52 | < 4.52 | < 4.52 | 5.29 | < 6.29 | < 6.29 | 112 |  | 
12 | CC(Nc1ccc(F)c(F)c1)c1cc(C(=O)N2CCN3CCC[C@H]3C2)cc2ncc(N3CCOCC3)nc12 (single isomer, unassigned) [Compound 287b] | 7.57 | 5.53 | 5.03 | < 4.52 | < 4.52 |  |  | 95 | < 6.29 | 6.38
13 | CC(Nc1cc(F)c(F)c(F)c1)c1cc(C(=O)NCC(C)(C)O)cc2ncc(N3CCOCC3)nc12 (single isomer, unassigned) [Compound 292a] | 7.77 | 6.22 | 5.55 | 4.49 | 4.66 | 6.81 | 7.01 | 110 |  | 
14 | Cc1ccc(NC(C)c2cc(C(=O)NCCO)cc3ncc(N4CCOCC4)nc23)cc1F (single isomer, unassigned) [Compound 295b] | 4.71 | < 4.52 | < 4.52 | < 4.52 | 5.34 |  |  | 120 | < 6.29 | < 6.29
15 | CC(Nc1ccc(F)c(F)c1)c1cc(C(=O)N2CC[C@@H](O)C2)cc2ncc(N3CCOCC3)nc12 (single isomer, unassigned) [Compound 300a] | 8.70 | 6.72 | 5.83 | < 4.52 | 5.26 |  |  | 140 | 7.54 | 7.72
